Source: ChEMBL document CHEMBL1201862, “PubChem BioAssay data set” (2004)
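The compound was tested at five concentrations on cells cultured in 96-well plates, with a 48-hour exposure period. Here, GI50 denotes the concentration required for 50% inhibition of growth.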 The source made the active and inactive calls. Cut-off read from the data, not from the text of the source: active = GI50 up to about 1.1 µM and inactive = higher.

Columns and labels:
Assay in all cases: growth of human tumour cells (NCI), 48 h
NCI-H460 = test system: NCI-H460
MDA-MB-435 = test system: MDA-MB-435
K562 = test system: K562
MCF7 = test system: MCF7
HOP-92 = test system: HOP-92
HCT-15 = test system: HCT-15
NCI-H522 = test system: NCI-H522
UACC-62 = test system: UACC-62
UO-31 = test system: UO-31
SW-620 = test system: SW-620
Hs-578T = test system: Hs-578T
OVCAR-5 = test system: OVCAR-5
NCI-H23 = test system: NCI-H23
U-251 = test system: U-251
CCRF-CEM = test system: CCRF-CEM
MDA-N = test system: MDA-N
DU-145 = test system: DU-145
SK-MEL-28 = test system: SK-MEL-28
SK-OV-3 = test system: SK-OV-3
HT-29 = test system: HT-29
BT-549 = test system: BT-549
A549 = test system: A549
NCI-H226 = test system: NCI-H226
PC-3 = test system: PC-3
MDA-MB-231 = test system: MDA-MB-231
SF-268 = test system: SF-268
SNB-19 = test system: SNB-19
OVCAR-3 = test system: OVCAR-3
LOX IMVI = test system: LOX IMVI
SR = test system: SR
RXF 393 = test system: RXF 393
EKVX = test system: EKVX
HCT-116 = test system: HCT-116
HOP-62 = test system: HOP-62
SK-MEL-5 = test system: SK-MEL-5
COLO 205 = test system: COLO 205
OVCAR-8 = test system: OVCAR-8
MOLT-4 = test system: MOLT-4
CAKI-1 = test system: CAKI-1
RPMI-8226 = test system: RPMI-8226
UACC-257 = test system: UACC-257
KM12 = test system: KM12
OVCAR-4 = test system: OVCAR-4
SF-539 = test system: SF-539
SF-295 = test system: SF-295
ACHN = test system: ACHN
Malme-3M = test system: Malme-3M
TK-10 = test system: TK-10
SNB-75 = test system: SNB-75
M14 = test system: M14
786-0 = test system: 786-0
HCC 2998 = test system: HCC 2998
SN12C = test system: SN12C
IGROV-1 = test system: IGROV-1
T47D = test system: T47D
A498 = test system: A498
NCI/ADR-RES = test system: NCI/ADR-RES
SK-MEL-2 = test system: SK-MEL-2

Structure (SMILES): CC(=O)OC/C=C/[C@H](O[Si](C)(C)C(C)(C)C)[C@@H](O)/C=C/COC(C)=O
- GI50 (NCI-H460): > 100 µM (inactive)
- GI50 (MDA-MB-435): > 100 µM (inactive)
- GI50 (K562): 23 µM (inactive)
- GI50 (MCF7): 49.5 µM (inactive)
- GI50 (HOP-92): > 100 µM (inactive)
- GI50 (HCT-15): > 100 µM
- GI50 (NCI-H522): > 100 µM (inactive)
- GI50 (UACC-62): > 100 µM (inactive)
- GI50 (UO-31): > 100 µM (inactive)
- GI50 (SW-620): > 100 µM (inactive)
- GI50 (Hs-578T): > 100 µM (inactive)
- GI50 (OVCAR-5): > 100 µM (inactive)
- GI50 (NCI-H23): > 100 µM (inactive)
- GI50 (U-251): > 100 µM (inactive)
- GI50 (CCRF-CEM): 26 µM (inactive)
- GI50 (MDA-N): > 100 µM (inactive)
- GI50 (DU-145): > 100 µM (inactive)
- GI50 (SK-MEL-28): > 100 µM (inactive)
- GI50 (SK-OV-3): > 100 µM (inactive)
- GI50 (HT-29): > 100 µM (inactive)
- GI50 (BT-549): > 100 µM (inactive)
- GI50 (A549): > 100 µM (inactive)
- GI50 (NCI-H226): > 100 µM (inactive)
- GI50 (PC-3): > 100 µM (inactive)
- GI50 (MDA-MB-231): > 100 µM (inactive)
- GI50 (SF-268): > 100 µM (inactive)
- GI50 (SNB-19): > 100 µM (inactive)
- GI50 (OVCAR-3): > 100 µM (inactive)
- GI50 (LOX IMVI): 76.6 µM (inactive)
- GI50 (SR): 30.4 µM (inactive)
- GI50 (RXF 393): > 100 µM (inactive)
- GI50 (EKVX): > 100 µM (inactive)
- GI50 (HCT-116): > 100 µM (inactive)
- GI50 (HOP-62): > 100 µM (inactive)
- GI50 (SK-MEL-5): > 100 µM (inactive)
- GI50 (COLO 205): > 100 µM (inactive)
- GI50 (OVCAR-8): > 100 µM (inactive)
- GI50 (MOLT-4): 23.7 µM (inactive)
- GI50 (CAKI-1): > 100 µM (inactive)
- GI50 (RPMI-8226): 20.6 µM (inactive)
- GI50 (UACC-257): > 100 µM (inactive)
- GI50 (KM12): > 100 µM (inactive)
- GI50 (OVCAR-4): > 100 µM (inactive)
- GI50 (SF-539): > 100 µM (inactive)
- GI50 (SF-295): > 100 µM (inactive)
- GI50 (ACHN): > 100 µM (inactive)
- GI50 (Malme-3M): > 100 µM (inactive)
- GI50 (TK-10): > 100 µM (inactive)
- GI50 (SNB-75): 5.45 µM (inactive)
- GI50 (M14): > 100 µM (inactive)
- GI50 (786-0): > 100 µM (inactive)
- GI50 (HCC 2998): > 100 µM (inactive)
- GI50 (SN12C): > 100 µM (inactive)
- GI50 (IGROV-1): > 100 µM (inactive)
- GI50 (T47D): > 100 µM (inactive)
- GI50 (A498): > 100 µM (inactive)
- GI50 (NCI/ADR-RES): > 100 µM (inactive)
- GI50 (SK-MEL-2): > 100 µM (inactive)
